What was measured:
[1] = system: HeLa cells; test: MTT proliferation assay, activity of stored everolimus samples; format: cell-based; conditions: for day of drastic decrease in anti-proliferative activity: tested at 5 nM
Description: (§1) Both HeLa cells (cervical cancer cell line) and SH-SY5Y cells (neuroblastoma cell line) were obtained from the American Type Culture Collection (Manassas, Va., USA) and cultured in Dulbecco's Modified Eagle's medium (DMEM with L-glutamine) supplemented with 10% (v/v) heat-inactivated foetal bovine serum (FBS), 100 U of penicillin, 100 U of streptomycin in a 5% CO2 humidified incubator at 37° C. Cell viability was verified with the standard Trypan Blue method.
(§2) The activity of everolimus in organic solution and in the micelles was determined by evaluating cell proliferation after the treatment. Briefly, the HeLa and SH-SY5Y cells were seeded in a 96-well plate at a concentration of 3000 cells/well and 6000 cells/well, respectively, and were maintained in the culture medium (100 μl) for 24 hours. After incubation at 37, 25 and 4° C. for 7, 14, 35, 50 and 77 days, the samples were suspended in the cell culture medium at a final concentration of 5 nM. Untreated cells, cells treated with a 10% v/v DMSO/saline solution (Veh) and empty micelles in saline solution, both diluted in a manner equivalent to the drug, were analysed as controls. A freshly prepared everolimus solution was used as the reference standard. Cell proliferation was evaluated using the 3-[4,5-dimethylthiazol-2-yl]-2,5-diphenyltetrazolium (MTT) assay (Sigma-Aldrich) according to the manufacturer's manual. The cells were mixed with 10 μl of MTT (0.5 mg/ml) and kept in a humidified incubator at 37° C. for 4 hours. Subsequently, 100 μl of a solubilisation solution (10% SDS with 0.01 N HCl) were added to each well. Formazan crystal solubilisation was carried out overnight in an incubator a 37° C. The next day, cell proliferation was evaluated by means of spectrophotometric readings taken with a Beckman Coulter DTX 880 multimode detector (Beckman Coulter Inc., Brea, Calif., USA) using a line at 589 nm and reference at 650 nm.
(§3) In order to correlate the stability of everolimus with the preservation of activity, samples incubated under the same conditions as in the stability study were dosed in HeLa and SH-SY5Y cells at established points in time. For this test the cell lines were seeded and maintained for 24 hours at 37° C. prior to treatment. […] The activity of the solution, by contrast, began to wane at 35 days, confirming a prolonged effect of inhibition of the micelles on cell proliferation. […] In order to better quantify the differences among the various samples in terms of the residual activity of everolimus, the residual anti-proliferative activity was calculated and is shown in FIGS. 3A and 3B.

[2] = system: SH-SY5Y cells; test: as above; format: cell-based; conditions: for day of drastic decrease in anti-proliferative activity: tested at 5 nM
Description: as §1, §2, §3

[3] = Evaluation of stability by HPLC analysis of everolimus samples stored at 37, 25 and 4° C.; format: physicochemical
Description: Everolimus (Selleck Chemicals, Aurogene, Rome, Italy) was dissolved in DMSO (VWR, Milan, Italy) at a concentration of 1 mg/ml. The everolimus solution was subsequently diluted in 10% v/v DMSO/saline solution until obtaining a final concentration of 10 μg/ml. The resulting solution was then incubated at 4, 25 and 37° C.
Carefully weighed amounts of everolimus and distearoylphosphoethanolam ine-polyethylene glycol 2000 (DSPE-PEG2000, Lipoid, Switzerland) were dissolved in 3 ml of chloroform (Sigma-Aldrich, Milan, Italy) in a 50 ml flask. The solvent was removed by light evaporation at room temperature under a flow of nitrogen and vacuum dried for 1 hour to eliminate residual traces. The thin film obtained was reconstituted in an exact volume (3 mL) of aqueous medium. After complete reconstitution a clear micellar dispersion was obtained. The dispersion was then incubated at 4, 25 and 37° C.
The drug was quantified using the HPLC method. Briefly, the instrument used is a Portlab STAYER HPLC system equipped with a UV detector, a parallel pump and Triathlon autosampler (Portlab, Rome, Italy). The conditions used are the following: isocratic mode with acetonitrile:water (60:40, v/v) eluted at 0.8 ml/min and a Zorbax C8 column, 4.6 mm ID×250 mm, 5 μm (Agilent, Milan, Italy) equilibrated at 55° C. UV detection was performed at 278 nm. A calibration curve was constructed in the concentration interval of 0.62-10 μg/mL (r^2=0.9992).
The samples of solution were injected directly (injection volume 15 μL), whereas the micellar suspension was diluted 200 times in DMSO before being subjected to analysis. In order to reduce the carryover effects and an excessive accumulation of lipids in the column, samples of solution and micelles were injected alternately. The column was periodically washed with chloroform and methanol to avoid the accumulation of lipids and impairment of performance. All measurements were performed in triplicate and the results were expressed as the mean±D.S.

CO[C@H]1C[C@@H]2CC[C@@H](C)[C@@](O)(O2)C(=O)C(=O)N2CCCC[C@H]2C(=O)O[C@H]([C@H](C)C[C@@H]2CC[C@@H](OCCO)[C@H](OC)C2)CC(=O)[C@H](C)/C=C(\C)[C@@H](O)[C@@H](OC)C(=O)[C@H](C)C[C@H](C)/C=C/C=C/C=C/1C [solution, Everolimus]
day at which activity began to wane ([1]; 5 nM): 35 days
day of drastic decrease in anti-proliferative activity ([1]; sample stored at 4° C.): 50 days
day of drastic decrease in anti-proliferative activity ([1]; sample stored at 25° C.): 35 days
day of drastic decrease in anti-proliferative activity ([1]; sample stored at 37° C.): 14 days
day at which activity began to wane ([2]; 5 nM): 35 days
day of drastic decrease in anti-proliferative activity ([2]; sample stored at 4° C.): 50 days
day of drastic decrease in anti-proliferative activity ([2]; sample stored at 25° C.): 35 days
day of drastic decrease in anti-proliferative activity ([2]; sample stored at 37° C.): 14 days
day by which everolimus had decayed (HPLC) ([3]; stored at 4° C.): ≤ 50 days
day by which everolimus had decayed (HPLC) ([3]; stored at 25° C.): ≤ 35 days
day by which everolimus had fallen to zero / decayed (HPLC) ([3]; stored at 37° C.): ≤ 14 days
